This is an account of results in publication PMC5064435, “Inhibition of endoplasmic reticulum glucosidases is required for in vitro and in vivo dengue antiviral activity by the iminosugar UV-4” (Antiviral Research, 2016).

Structures can show the parent of a compound that is named as a salt.

Assay [1] concerns the target T1, ceramide glucosyltransferase (HL60 glucosyltransferase) (Homo sapiens, UniProt Q16739).
T1 construct: gene UGCG; native enzyme isolated from human promyelocytic HL60 cells
T1 sequence (Q16739 1-394): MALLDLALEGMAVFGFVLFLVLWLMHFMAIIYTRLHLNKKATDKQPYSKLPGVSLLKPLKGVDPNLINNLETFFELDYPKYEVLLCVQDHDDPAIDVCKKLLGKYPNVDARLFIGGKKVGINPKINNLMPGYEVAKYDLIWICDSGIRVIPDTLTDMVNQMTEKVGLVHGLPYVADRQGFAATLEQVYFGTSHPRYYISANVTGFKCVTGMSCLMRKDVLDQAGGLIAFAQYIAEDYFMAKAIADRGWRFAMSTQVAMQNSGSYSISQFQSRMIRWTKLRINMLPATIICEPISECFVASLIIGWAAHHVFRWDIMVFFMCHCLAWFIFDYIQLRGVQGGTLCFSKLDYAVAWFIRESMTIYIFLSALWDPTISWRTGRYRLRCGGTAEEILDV
The assay is described as follows: enzyme inhibition assay, enzyme isolated from HL60 cells. The following applies: read-out: IC50 ^a / UV-4B. It counts as biochemical. From the text:
enzyme inhibition assay, enzyme isolated from HL60 cells on ceramide glucosyltransferase (HL60 glucosyltransferase)

Assay [2] deals with T2, α-glucosidase I (human MDMΦs) (Homo sapiens, UniProt Q13724).
T2 construct: gene MOGS; endogenous enzyme in primary human monocyte-derived macrophages
T2 sequence (Q13724 1-837): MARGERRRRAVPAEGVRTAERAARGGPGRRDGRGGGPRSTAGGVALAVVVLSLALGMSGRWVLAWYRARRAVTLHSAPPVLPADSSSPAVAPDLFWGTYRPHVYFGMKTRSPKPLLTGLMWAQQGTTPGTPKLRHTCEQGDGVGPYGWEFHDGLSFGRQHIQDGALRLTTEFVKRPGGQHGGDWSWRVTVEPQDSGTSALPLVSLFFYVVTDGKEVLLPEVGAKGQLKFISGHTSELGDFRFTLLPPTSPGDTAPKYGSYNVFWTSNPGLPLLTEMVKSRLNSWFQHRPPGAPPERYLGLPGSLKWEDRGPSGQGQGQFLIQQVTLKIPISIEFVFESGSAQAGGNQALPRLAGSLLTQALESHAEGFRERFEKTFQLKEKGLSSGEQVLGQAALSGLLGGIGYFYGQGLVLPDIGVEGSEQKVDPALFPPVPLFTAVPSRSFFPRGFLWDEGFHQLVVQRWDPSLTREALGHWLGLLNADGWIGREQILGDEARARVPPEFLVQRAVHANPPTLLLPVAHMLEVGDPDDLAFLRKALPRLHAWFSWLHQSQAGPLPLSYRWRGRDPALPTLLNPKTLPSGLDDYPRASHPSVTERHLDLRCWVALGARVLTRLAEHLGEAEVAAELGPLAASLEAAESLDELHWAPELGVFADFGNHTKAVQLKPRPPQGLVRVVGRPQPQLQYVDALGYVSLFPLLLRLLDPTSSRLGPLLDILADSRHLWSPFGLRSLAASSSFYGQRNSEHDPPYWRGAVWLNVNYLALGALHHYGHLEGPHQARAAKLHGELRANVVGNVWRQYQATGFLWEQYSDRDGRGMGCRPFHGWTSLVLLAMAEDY
Kind of assay: free oligosaccharide (Glc3Man5GlcNAc1) accumulation in human MDMΦs. It counts as cell-based. The conditions noted are these: […] h treatment of uninfected cells.

The next assay addresses T3, Rat intestinal maltase.
T3 construct: gene Mgam; native rat intestinal enzyme activity; maltase may be maltase-glucoamylase and/or sucrase-isomaltase
Kind of assay: enzyme inhibition assay. In kind it is biochemical. The conditions noted are these: read-out: IC50 ^a / UV-4B. The source says:
enzyme inhibition assay on Rat intestinal maltase

For a further assay, the target named is T4, Rat intestinal sucrase (Rattus norvegicus, UniProt P23739).
T4 construct: gene Si; native rat intestinal enzyme; sucrase (C-terminal) subunit of sucrase-isomaltase
T4 sequence (P23739 1014-1841 limits assumed): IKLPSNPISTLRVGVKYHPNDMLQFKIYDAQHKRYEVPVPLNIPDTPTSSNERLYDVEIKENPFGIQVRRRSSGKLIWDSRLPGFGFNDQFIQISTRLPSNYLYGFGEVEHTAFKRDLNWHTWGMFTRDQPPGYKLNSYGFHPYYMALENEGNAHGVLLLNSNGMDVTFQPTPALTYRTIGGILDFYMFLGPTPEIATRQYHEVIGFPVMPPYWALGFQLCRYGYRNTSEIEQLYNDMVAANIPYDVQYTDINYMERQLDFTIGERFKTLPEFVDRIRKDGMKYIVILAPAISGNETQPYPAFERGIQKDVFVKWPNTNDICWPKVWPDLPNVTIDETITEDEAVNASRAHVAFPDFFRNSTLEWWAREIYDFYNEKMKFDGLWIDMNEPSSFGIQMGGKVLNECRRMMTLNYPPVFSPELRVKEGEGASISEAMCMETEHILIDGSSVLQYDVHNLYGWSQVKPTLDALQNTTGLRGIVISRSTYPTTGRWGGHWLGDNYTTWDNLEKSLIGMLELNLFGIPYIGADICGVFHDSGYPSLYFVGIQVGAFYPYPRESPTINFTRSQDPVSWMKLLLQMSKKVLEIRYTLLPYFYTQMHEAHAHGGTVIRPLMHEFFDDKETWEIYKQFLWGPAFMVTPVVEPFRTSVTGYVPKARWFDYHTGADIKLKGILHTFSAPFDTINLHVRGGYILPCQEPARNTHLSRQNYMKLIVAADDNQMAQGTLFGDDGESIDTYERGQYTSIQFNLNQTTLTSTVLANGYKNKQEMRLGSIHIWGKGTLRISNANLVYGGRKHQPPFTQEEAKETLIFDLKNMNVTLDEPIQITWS
The assay is described as follows: enzyme inhibition assay. In kind it is biochemical. The conditions noted are these: read-out: IC50 ^a / UV-4B. From the text: enzyme inhibition assay on Rat intestinal sucrase

For assay [3], the target named is T5, α-glucosidase II (human MDMΦs) (Homo sapiens, UniProt Q14697).
T5 construct: gene GANAB; endogenous enzyme in primary human monocyte-derived macrophages; with Glucosidase 2 subunit beta
T5 sequence (Q14697 29-944): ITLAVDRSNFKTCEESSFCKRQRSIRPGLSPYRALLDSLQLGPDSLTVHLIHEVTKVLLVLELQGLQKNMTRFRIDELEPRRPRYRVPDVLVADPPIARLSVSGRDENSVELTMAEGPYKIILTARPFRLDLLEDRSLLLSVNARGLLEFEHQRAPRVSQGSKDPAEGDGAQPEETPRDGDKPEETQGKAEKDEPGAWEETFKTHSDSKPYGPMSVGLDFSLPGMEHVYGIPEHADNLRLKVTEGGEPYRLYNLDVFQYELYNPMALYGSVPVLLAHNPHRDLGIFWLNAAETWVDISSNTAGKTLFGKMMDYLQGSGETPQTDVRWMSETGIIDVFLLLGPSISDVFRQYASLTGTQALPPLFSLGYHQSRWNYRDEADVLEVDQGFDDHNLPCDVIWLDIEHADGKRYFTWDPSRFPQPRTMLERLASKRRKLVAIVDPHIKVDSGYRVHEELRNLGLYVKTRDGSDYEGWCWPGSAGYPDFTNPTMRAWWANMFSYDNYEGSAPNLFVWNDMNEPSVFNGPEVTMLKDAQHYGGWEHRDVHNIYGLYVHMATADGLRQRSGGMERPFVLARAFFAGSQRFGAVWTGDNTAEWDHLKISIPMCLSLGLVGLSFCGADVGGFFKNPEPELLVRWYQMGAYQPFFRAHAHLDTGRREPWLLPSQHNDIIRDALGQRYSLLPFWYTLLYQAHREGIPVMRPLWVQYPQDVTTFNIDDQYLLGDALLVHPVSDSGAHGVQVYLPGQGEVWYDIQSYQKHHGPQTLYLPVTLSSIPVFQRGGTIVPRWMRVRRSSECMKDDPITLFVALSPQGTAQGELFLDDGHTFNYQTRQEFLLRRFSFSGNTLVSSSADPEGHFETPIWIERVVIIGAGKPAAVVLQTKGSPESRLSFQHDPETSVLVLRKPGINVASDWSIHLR
T5 sequence (P14314 15-528 partner): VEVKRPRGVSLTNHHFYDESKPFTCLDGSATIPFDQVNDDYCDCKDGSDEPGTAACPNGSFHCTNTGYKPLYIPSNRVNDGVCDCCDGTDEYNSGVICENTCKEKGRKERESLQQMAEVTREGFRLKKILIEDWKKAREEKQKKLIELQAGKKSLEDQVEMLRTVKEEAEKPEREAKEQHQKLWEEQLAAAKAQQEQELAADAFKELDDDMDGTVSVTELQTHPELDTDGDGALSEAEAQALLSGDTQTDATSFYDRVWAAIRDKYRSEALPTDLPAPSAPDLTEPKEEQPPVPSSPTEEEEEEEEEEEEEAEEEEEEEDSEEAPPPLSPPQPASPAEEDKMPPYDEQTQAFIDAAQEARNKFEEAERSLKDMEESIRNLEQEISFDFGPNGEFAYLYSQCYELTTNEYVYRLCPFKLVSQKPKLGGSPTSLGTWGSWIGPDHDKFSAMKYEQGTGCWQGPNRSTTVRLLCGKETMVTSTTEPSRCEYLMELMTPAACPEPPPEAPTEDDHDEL
The assay is described as follows: free oligosaccharide (Glc1Man4GlcNAc1) accumulation in human MDMΦs. In kind it is cell-based. The following applies: […] h treatment of uninfected cells.

For the compound `COCCCCCCCCCN1C[C@H](O)[C@@H](O)[C@H](O)[C@H]1CO` [UV-4B, N-(9′-methoxynonyl)-1-deoxynojirimycin hydrochloride], the IC50 in assay [1] amounted to 390 nM; at Rat intestinal maltase, 280 nM; on Rat intestinal sucrase, 500 nM. For the same compound, the “free oligosaccharide (Glc3Man5GlcNAc1) accumulation in human MDMΦs” value in assay [2] is recorded as “UV-4B led to accumulation of FOS representative of inhibition of both α-glucosidases”. Also, the “free oligosaccharide (Glc1Man4GlcNAc1) accumulation in human MDMΦs” value in assay [3] is listed as “UV-4B led to accumulation of FOS representative of inhibition of both α-glucosidases”.
